Tested on: not listed separately
Experiment: Half-life determined upon exposure to rat liver microsomes
Type: ADME, Microsome
Details: not given

| half-life | Compound |
| --- | --- |
| 3 min | Br.Cc1ccc(N2CCN(C[C@@H]3C[C@H]3c3ccccc3)CC2)c(C)c1 |
| 2 min | Br.Clc1ccc(N2CCN(C[C@H]3C[C@@H]3c3ccccc3)CC2)c(Cl)c1 |

Tested on: not listed separately
Experiment: Half-life determined upon exposure to human liver microsomes
Type: ADME, Microsome
Details: not given

| half-life | Compound |
| --- | --- |
| 16 min | Br.Cc1ccc(N2CCN(C[C@@H]3C[C@H]3c3ccccc3)CC2)c(C)c1 |
| 19 min | Br.Clc1ccc(N2CCN(C[C@H]3C[C@@H]3c3ccccc3)CC2)c(Cl)c1 |

Target: T1, Adrenergic receptor alpha-1 (Rattus norvegicus, UniProt P15823+P23944+P43140)
T1 sequence (P15823 whole entry): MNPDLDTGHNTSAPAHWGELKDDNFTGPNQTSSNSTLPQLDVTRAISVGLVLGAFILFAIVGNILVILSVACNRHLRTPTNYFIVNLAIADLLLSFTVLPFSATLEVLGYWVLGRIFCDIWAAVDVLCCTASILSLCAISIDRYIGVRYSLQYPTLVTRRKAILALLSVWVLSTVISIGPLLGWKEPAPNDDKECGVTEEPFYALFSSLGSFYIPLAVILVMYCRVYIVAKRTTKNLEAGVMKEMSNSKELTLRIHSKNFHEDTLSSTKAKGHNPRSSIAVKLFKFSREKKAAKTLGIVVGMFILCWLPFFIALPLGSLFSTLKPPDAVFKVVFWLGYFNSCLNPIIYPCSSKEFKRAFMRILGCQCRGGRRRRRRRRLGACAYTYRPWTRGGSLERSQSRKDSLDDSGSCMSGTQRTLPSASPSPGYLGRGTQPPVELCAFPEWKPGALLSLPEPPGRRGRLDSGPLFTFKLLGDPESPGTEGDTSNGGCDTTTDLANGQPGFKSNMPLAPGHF
T1 sequence (P23944 whole entry): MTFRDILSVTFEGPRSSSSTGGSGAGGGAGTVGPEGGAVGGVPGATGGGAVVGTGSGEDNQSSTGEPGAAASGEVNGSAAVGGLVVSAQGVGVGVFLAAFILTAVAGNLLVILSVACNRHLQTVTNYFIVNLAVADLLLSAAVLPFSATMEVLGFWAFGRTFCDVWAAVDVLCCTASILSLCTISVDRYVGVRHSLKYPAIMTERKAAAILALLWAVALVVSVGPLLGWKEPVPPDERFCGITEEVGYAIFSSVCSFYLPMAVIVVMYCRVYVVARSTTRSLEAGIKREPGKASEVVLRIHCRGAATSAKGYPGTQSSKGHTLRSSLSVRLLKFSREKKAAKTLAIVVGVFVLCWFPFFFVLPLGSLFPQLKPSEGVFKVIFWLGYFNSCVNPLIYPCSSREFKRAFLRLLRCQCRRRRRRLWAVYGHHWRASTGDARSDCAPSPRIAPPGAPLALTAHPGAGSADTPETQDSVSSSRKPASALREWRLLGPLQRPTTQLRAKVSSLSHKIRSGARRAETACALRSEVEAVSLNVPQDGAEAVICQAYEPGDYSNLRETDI
T1 sequence (P43140 whole entry): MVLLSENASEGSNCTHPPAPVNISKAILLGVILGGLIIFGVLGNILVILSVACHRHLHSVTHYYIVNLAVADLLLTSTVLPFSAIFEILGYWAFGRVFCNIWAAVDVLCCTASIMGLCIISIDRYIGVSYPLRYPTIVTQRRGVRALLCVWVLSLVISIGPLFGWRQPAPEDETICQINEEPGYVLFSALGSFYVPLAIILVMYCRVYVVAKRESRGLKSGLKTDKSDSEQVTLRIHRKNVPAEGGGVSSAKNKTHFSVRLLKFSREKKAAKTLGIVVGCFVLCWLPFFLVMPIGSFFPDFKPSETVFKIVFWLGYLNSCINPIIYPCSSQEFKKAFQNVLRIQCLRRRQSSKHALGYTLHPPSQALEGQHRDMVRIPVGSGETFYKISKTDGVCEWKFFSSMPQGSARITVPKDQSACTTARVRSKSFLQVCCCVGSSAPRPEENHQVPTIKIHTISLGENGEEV
Experiment: not given
Details: not given

| IC50 | Compound |
| --- | --- |
| 131 nM | Br.Cc1ccc(N2CCN(C[C@@H]3C[C@H]3c3ccccc3)CC2)c(C)c1 |
| 31 nM | Br.Cc1cc(F)ccc1N1CCN(C[C@H]2C[C@@H]2c2ccccc2)CC1 |
| 307 nM | Br.Cc1cc(Cl)ccc1N1CCN(C[C@H]2C[C@@H]2c2ccccc2)CC1 |
| 29 nM | Br.COc1cc(Cl)ccc1N1CCN(C[C@H]2C[C@@H]2c2ccccc2)CC1 |
| 14 nM | Br.Br.COc1cc(F)ccc1N1CCN(C[C@H]2C[C@@H]2c2ccccc2)CC1 |
| 322 nM | Br.Clc1ccc(N2CCN(C[C@H]3C[C@@H]3c3ccccc3)CC2)c(Cl)c1 |
| 137 nM | Br.Cc1ccc(N2CCN(C[C@H]3C[C@@H]3c3ccccc3)CC2)c(C)c1 |
| 348 nM | Clc1ccc(N2CCN(C[C@@H]3C[C@H]3c3ccccc3)CC2)c(Cl)c1 |
| 74 nM | Br.Oc1ccc([C@H]2C[C@@H]2CN2CCN(c3ccc(Cl)cc3Cl)CC2)cc1 (racemic) |
| 193 nM | Br.COc1c(Cl)cc(N2CCN(C[C@H]3C[C@@H]3c3ccccc3)CC2)cc1Cl (racemic) |
| 8 nM | Br.COc1ccc(Cl)cc1N1CCN(C[C@H]2C[C@@H]2c2ccccc2)CC1 (racemic) |
| 61 nM | Br.COc1ccc([C@H]2C[C@@H]2CN2CCN(c3ccc(Cl)cc3Cl)CC2)cc1 (racemic) |
| > 10000 nM | Br.c1ccc([C@H]2C[C@@H]2CN2CCN(c3ccncc3)CC2)cc1 (racemic) |
| 45 nM | Br.Clc1ccc(N2CCN(C[C@H]3C[C@@H]3c3ccccc3)CC2)cc1Cl (racemic) |
| 329 nM | Br.Clc1cccc(N2CCN(C[C@H]3C[C@@H]3c3ccccc3)CC2)c1Cl (racemic) |
| 10 nM | Br.Clc1ccccc1N1CCN(C[C@H]2C[C@@H]2c2ccccc2)CC1 (racemic) |
| 324 nM | Br.COc1cccc(N2CCN(C[C@H]3C[C@@H]3c3ccccc3)CC2)c1 (racemic) |
| 9 nM | Br.Fc1ccc([C@H]2C[C@@H]2CN2CCN(c3ccccc3Cl)CC2)cc1 (racemic) |
| 81 nM | Br.Clc1ccc(N2CCN(C[C@H]3C[C@@H]3c3ccccc3)CC2)cc1 (racemic) |
| 70 nM | Br.Clc1cccc(N2CCN(C[C@H]3C[C@@H]3c3ccccc3)CC2)c1 (racemic) |
| 61 nM | Br.Fc1ccc([C@H]2C[C@@H]2CN2CCN(c3ccc(Cl)cc3)CC2)cc1 (racemic) |
| 633 nM | Br.COc1ccc(N2CCN(C[C@H]3C[C@@H]3c3ccccc3)CC2)cc1 (racemic) |
| 1341 nM | Br.Clc1cc(Cl)cc(N2CCN(C[C@H]3C[C@@H]3c3ccccc3)CC2)c1 (racemic) |
| 168 nM | Cl.c1ccc([C@H]2C[C@@H]2CN2CCN(c3ncccn3)CC2)cc1 (racemic) |
| 55 nM | Cl.c1ccc([C@H]2C[C@@H]2CN2CCN(c3ccccn3)CC2)cc1 (racemic) |
| 311 nM | Br.Clc1ccc(N2CCN(C[C@H]3C[C@@H]3c3ccccc3)CC2)c(Cl)c1 (racemic) |
| 144 nM | Br.Cc1ccc(N2CCN(CC3CC3c3ccccc3)CC2)c(C)c1 (racemic) |
| 22 nM | c1ccc([C@H]2C[C@@H]2CN2CCN(c3ccccc3)CC2)cc1 (racemic) |

| Compound | IC50 |
| --- | --- |
| Br.c1ccc([C@H]2C[C@@H]2CN2CCN(c3cccnc3)CC2)cc1 (racemic) | > 1246 nM |

Species: Rattus norvegicus
Experiment: animal or person
Details: read-out: MED
Description: Minimum effective dose that produced a significant effect relative to the amphetamine alone control using a Fisher's LSD post hoc test (P<0.05)

| Compound | minimal effective dose |
| --- | --- |
| CN1CCN(C2=Nc3cc(Cl)ccc3Nc3ccccc32)CC1 [CLOZAPINE] | 0.5 mg/kg |
| O=C(CCCN1CCC(O)(c2ccc(Cl)cc2)CC1)c1ccc(F)cc1 [HALOPERIDOL] | 0.06 mg/kg |

Species: Rattus norvegicus
Experiment: animal or person
Details: read-out: MED
Remark: another data set of the same source
Description: Minimum effective dose observed in rat catalepsy experiments

| Compound | minimal effective dose |
| --- | --- |
| O=C(CCCN1CCC(O)(c2ccc(Cl)cc2)CC1)c1ccc(F)cc1 [HALOPERIDOL] | 0.5 mg/kg |
